Laboratory results published in patent publication US12172995B2, “Substituted indole and indazole compounds” (BRISTOL-MYERS SQUIBB COMPANY, priority 2018, dated 2024).

Assays:
Type in all cases: cell-based
[1] = molecular target: T1, human TLR8 (Homo sapiens, UniProt Q9NR97); experiment: TLR8 inhibition reporter assay (HEK-Blue SEAP); conditions: HEK-Blue cells overexpressing human TLR8, stimulated with R848 15.9 μM, 22 hour incubation
T1 construct: host or cells: HEK-Blue cells
T1 sequence (Q9NR97 27-1041): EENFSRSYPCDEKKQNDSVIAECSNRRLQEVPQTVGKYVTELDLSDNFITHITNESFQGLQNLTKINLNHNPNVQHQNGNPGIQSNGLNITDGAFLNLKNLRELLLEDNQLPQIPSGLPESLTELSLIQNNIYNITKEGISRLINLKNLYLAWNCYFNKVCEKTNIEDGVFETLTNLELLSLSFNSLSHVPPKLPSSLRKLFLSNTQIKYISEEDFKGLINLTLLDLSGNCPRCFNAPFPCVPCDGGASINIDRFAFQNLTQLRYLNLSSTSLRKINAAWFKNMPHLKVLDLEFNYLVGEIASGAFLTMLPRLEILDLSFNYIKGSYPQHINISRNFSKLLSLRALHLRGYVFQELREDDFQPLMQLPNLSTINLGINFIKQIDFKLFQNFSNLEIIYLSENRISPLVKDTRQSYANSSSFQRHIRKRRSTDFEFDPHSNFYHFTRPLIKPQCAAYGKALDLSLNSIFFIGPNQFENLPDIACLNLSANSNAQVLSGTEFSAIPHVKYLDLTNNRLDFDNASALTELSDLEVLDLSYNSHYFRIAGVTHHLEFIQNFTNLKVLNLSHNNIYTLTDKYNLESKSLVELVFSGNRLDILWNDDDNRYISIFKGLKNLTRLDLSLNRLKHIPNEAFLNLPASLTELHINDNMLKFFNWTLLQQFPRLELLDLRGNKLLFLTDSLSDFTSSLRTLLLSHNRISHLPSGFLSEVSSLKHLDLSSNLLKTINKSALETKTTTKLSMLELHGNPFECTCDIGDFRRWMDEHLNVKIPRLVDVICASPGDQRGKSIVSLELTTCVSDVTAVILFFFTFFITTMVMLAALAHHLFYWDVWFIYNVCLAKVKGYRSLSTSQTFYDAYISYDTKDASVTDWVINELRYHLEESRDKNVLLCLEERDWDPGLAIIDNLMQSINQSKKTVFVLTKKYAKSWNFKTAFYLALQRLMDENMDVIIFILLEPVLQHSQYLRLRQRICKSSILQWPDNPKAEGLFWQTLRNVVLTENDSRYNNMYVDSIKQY
In short: (§1)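 Percent inhibition reflects SEAP reduction after 22 h at 37° C, relative to agonist-plus-DMSO and known-inhibitor controls. Compounds (0.05 nM to 50 μM) were added 30 min before agonist: TLR9 cells received ODN2006 5 nM, TLR8 cells R848 15.9 μM, TLR7 cells gardiquimod 7.5 μM; human receptor-expressing HEK-Blue reporter lines.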

[2] = molecular target: T2, human TLR9 (Homo sapiens, UniProt Q9NR96); experiment: TLR9 inhibition reporter assay (HEK-Blue SEAP); conditions: HEK-Blue cells overexpressing human TLR9, stimulated with ODN2006 5 nM, 22 hour incubation
T2 construct: host or cells: HEK-Blue cells
T2 sequence (Q9NR96 26-1032): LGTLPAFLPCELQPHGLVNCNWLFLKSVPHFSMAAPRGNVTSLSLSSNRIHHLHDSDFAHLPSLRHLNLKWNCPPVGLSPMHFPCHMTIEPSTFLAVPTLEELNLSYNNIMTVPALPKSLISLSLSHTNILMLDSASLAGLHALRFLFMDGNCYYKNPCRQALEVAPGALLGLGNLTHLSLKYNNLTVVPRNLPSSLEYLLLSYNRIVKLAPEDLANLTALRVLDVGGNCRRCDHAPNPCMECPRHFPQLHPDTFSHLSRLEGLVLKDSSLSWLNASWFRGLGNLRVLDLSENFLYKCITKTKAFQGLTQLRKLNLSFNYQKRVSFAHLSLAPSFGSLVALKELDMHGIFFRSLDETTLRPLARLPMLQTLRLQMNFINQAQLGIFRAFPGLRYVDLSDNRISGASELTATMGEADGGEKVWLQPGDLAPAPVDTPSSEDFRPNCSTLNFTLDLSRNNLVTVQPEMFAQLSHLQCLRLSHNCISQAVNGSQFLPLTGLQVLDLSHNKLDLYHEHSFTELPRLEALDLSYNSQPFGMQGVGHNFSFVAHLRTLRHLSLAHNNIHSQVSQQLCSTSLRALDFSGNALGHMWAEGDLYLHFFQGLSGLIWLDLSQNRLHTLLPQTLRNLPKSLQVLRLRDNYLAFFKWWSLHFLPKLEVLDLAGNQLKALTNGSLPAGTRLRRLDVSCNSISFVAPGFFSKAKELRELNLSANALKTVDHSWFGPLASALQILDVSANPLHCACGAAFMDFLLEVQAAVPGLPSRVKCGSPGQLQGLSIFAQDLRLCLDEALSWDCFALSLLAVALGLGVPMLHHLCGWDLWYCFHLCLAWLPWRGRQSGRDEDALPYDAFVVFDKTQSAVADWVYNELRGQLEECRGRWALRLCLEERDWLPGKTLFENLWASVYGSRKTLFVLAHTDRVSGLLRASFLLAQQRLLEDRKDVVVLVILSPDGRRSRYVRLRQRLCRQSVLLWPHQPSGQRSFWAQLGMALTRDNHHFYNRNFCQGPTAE
In short: as §1

[3] = molecular target: T3, human TLR7 (Homo sapiens, UniProt Q9NYK1); experiment: TLR7 inhibition reporter assay (HEK-Blue SEAP); conditions: HEK-Blue cells overexpressing human TLR7, stimulated with gardiquimod 7.5 μM, 22 hour incubation
T3 construct: host or cells: HEK-Blue cells
T3 sequence (Q9NYK1 27-1049): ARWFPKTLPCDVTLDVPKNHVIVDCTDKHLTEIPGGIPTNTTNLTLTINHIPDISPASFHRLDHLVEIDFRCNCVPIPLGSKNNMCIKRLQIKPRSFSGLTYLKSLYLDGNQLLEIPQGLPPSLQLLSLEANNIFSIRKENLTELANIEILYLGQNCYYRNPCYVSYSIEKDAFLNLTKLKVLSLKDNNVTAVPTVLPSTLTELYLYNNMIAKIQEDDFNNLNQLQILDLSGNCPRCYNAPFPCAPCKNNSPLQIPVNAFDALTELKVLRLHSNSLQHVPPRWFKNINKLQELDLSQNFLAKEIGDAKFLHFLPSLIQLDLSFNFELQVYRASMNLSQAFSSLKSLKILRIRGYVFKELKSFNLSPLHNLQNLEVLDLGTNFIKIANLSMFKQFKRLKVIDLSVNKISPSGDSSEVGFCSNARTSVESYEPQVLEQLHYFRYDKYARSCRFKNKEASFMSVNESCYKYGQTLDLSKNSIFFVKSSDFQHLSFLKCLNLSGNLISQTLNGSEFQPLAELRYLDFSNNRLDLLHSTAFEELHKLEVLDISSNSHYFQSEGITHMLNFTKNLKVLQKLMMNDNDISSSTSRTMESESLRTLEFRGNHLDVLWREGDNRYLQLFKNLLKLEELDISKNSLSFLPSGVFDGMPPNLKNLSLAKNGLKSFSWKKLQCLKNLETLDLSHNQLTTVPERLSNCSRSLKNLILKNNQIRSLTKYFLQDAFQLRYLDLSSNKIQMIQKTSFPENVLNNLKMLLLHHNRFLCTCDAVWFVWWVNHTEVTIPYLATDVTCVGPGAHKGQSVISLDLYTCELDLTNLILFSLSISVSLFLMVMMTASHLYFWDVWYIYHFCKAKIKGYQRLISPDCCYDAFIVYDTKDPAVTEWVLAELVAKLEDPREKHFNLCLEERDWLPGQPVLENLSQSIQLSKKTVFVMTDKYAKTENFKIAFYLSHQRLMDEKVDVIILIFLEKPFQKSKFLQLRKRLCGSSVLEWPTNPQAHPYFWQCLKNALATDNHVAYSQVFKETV
In short: as §1

SMILES	IC50 [1]	IC50 [2]	IC50 [3]
CCc1cc2c(C3CCC(NC4CC4)CC3)n[nH]c2cc1-c1cc(C)c2ncnn2c1 (single isomer, unassigned) [Example 98, N-cyclopropyl-4-(5-ethyl-6-(8-methyl-[1,2,4]triazolo[1,5-a]pyridin-6-yl)-1H-indazol-3-yl)cyclohexan-1-amine]	0.2 nM	6570 nM	2.5 nM
Cc1cc(-c2cc3[nH]nc(C4CCC(N5CCOCC5)CC4)c3cc2C(C)C)cn2ncnc12 (stereo not drawn) [Example 133, 4-(4-(5-isopropyl-6-(8-methyl-[1,2,4]triazolo[1,5-a]pyridin-6-yl)-1H-indazol-3-yl)cyclohexyl)morpholine]	0.2 nM	9190 nM	1.4 nM
Cc1cc(-c2cc3[nH]nc(C4CCC(N5CC(CO)(CO)C5)CC4)c3cc2C(C)C)cn2ncnc12 (stereo not drawn) [Example 146, (1-(4-(5-isopropyl-6-(8-methyl-[1,2,4]triazolo[1,5-a]pyridin-6-yl)-1H-indazol-3-yl)cyclohexyl)azetidine-3,3-diyl)dimethanol]	2.6 nM	≥ 50000 nM	4.7 nM
Cc1cc2c(C3CCCNC3)n[nH]c2cc1-c1cc(C)c2ncnn2c1 (stereo not drawn) [Example 24, 8-methyl-6-(5-methyl-3-(piperidin-3-yl)-1H-indazol-6-yl)-[1,2,4]triazolo[1,5-a]pyridine]	1.1 nM	862 nM	15.8 nM
Cc1cc(-c2cc(C)c3ncnn3c2)cc2[nH]nc(C3CCN(C(=O)CN(C)C)CC3)c12 [Example 75, 2-(dimethylamino)-1-(4-(4-methyl-6-(8-methyl-[1,2,4]triazolo[1,5-a]pyridin-6-yl)-1H-indazol-3-yl)piperidin-1-yl)ethan-1-one]	14.1 nM	1920 nM	7.2 nM
Cc1cc2c(OCCN(C)C)n[nH]c2cc1-c1cc(C)c2ncnn2c1 [Example 172, N,N-dimethyl-2-((5-methyl-6-(8-methyl-[1,2,4]triazolo[1,5-a]pyridin-6-yl)-1H-indazol-3-yl)oxy)ethan-1-amine]	1.4 nM	5070 nM	37.2 nM

Continued by falling IC50 [1], values first:

IC50 [1]	IC50 [2]	IC50 [3]	SMILES
53.8 nM	6050 nM	10.3 nM	Cc1cc(-c2cc(C)c3ncnn3c2)cc2[nH]nc(C3CCN(C)CC3)c12 [Example 79, 8-methyl-6-(4-methyl-3-(1-methylpiperidin-4-yl)-1H-indazol-6-yl)-[1,2,4]triazolo[1,5-a]pyridine]
9.4 nM	18900 nM	15.5 nM	Cc1cc(-c2cc3[nH]nc(C4CCC(N5CC(F)(F)C5)CC4)c3cc2C(C)C)cn2ncnc12 (single isomer, unassigned) [Example 135, 6-(3-(4-(3,3-difluoroazetidin-1-yl)cyclohexyl)-5-isopropyl-1H-indazol-6-yl)-8-methyl-[1,2,4]triazolo[1,5-a]pyridine]
8 nM	1850 nM	18.9 nM	Cc1cc(-c2cc(C)c3ncnn3c2)cc2[nH]nc(OCCN(C)C)c12 [Example 173, N,N-dimethyl-2-((4-methyl-6-(8-methyl-[1,2,4]triazolo[1,5-a]pyridin-6-yl)-1H-indazol-3-yl)oxy)ethan-1-amine]
1.8 nM	3860 nM	2.4 nM	CCc1cc(-c2cc(C)c3ncnn3c2)cc2[nH]nc(C3CCN(C(=O)CN(C)C)CC3)c12 [Example 110, 2-(dimethylamino)-1-(4-(4-ethyl-6-(8-methyl-[1,2,4]triazolo[1,5-a]pyridin-6-yl)-1H-indazol-3-yl)piperidin-1-yl)ethan-1-one]
1 nM	5760 nM	4.9 nM	CCc1cc(-c2cc(C)c3ncnn3c2)cc2[nH]nc(OC3CCN(CC(=O)N(C)C)CC3)c12 [Example 196, 2-(4-((4-ethyl-6-(8-methyl-[1,2,4]triazolo[1,5-a]pyridin-6-yl)-1H-indazol-3-yl)oxy)piperidin-1-yl)-N,N-dimethylacetamide]
0.9 nM	4120 nM	22.6 nM	Cc1cc2c(C3CCC(NC(C)C)CC3)n[nH]c2cc1-c1cc(C)c2ncnn2c1 (single isomer, unassigned) [Example 39, N-isopropyl-4-(5-methyl-6-(8-methyl-[1,2,4]triazolo[1,5-a]pyridin-6-yl)-1H-indazol-3-yl) cyclohexan-1-amine]
0.8 nM	13600 nM	6.9 nM	CCc1cc2c(C3CCN(CC#N)CC3)n[nH]c2cc1-c1cc(C)c2ncnn2c1 [Example 104, 2-(4-(5-ethyl-6-(8-methyl-[1,2,4]triazolo[1,5-a]pyridin-6-yl)-1H-indazol-3-yl)piperidin-1-yl)acetonitrile]
0.4 nM	10900 nM	1 nM	Cc1cc(-c2cc3[nH]nc(C4CCNCC4)c3cc2C(C)C)cn2ncnc12 [Example 102, 6-(5-isopropyl-3-(piperidin-4-yl)-1H-indazol-6-yl)-8-methyl-[1,2,4]triazolo[1,5-a]pyridine]
